Here are results for seven molecules from EP0908457B1, “3-(1,2-benzisothiazol- and isoxazol-5-Y1)-2,4(1H,3H)-pyrimidinedione or thione and 3-(1,2-benzisothiazol- and isoxazol-5-y1)-4(3H)-pyrimidinone or thione herbicidal agents” (BASF AKTIENGESELLSCHAFT, priority 1997, dated 1999).

Format in all cases: in vivo
The subject of test [1] is Echinochloa oryzoides (Ard.) Fritsch. Briefly: Preemergence weed control under flooded paddy conditions, ECHORC (Watergrass (Calif.)). On herbicidal effect rating, ECHORC: meaning of each grade not given here. The note with it: flooded paddy; for ECHORC: preemergence weeds, herbicidal effect rating 0-9, three to four weeks after treatment; for herbicidal effect rating, ECHORC / ECHORC herbicidal rating: preemergence.
Test [2] concerns Monochoria vaginalis, Presl. As to the kind of experiment: Preemergence weed control under flooded paddy conditions, MOOVA (Monochoria). On herbicidal effect rating, MOOVA: meaning of each grade not given here. The following applies: flooded paddy; for MOOVA: preemergence weeds, herbicidal effect rating 0-9, three to four weeks after treatment; for herbicidal effect rating, MOOVA / MOOVA herbicidal rating: preemergence.
For another test, the system named is Sagittaria pygmaea, L. Briefly: Preemergence weed control under flooded paddy conditions, SAGPY (Arrowhead (Pygmaea)). On herbicidal effect rating, SAGPY: meaning of each grade not given here. The following applies: flooded paddy; for SAGPY: preemergence weeds, herbicidal effect rating 0-9, three to four weeks after treatment; for herbicidal effect rating, SAGPY / SAGPY herbicidal rating: preemergence.
Test [3] relates to Cyperus serotinus, Rottb. Briefly: Preemergence weed control under flooded paddy conditions, CYPSE (Flatsedge). On herbicidal effect rating, CYPSE: meaning of each grade not given here. The note with it: for CYPSE: preemergence weeds, herbicidal effect rating 0-9, three to four weeks after treatment; for herbicidal effect rating, CYPSE / CYPSE herbicidal rating: preemergence.
The subject of another test is Cyperus iria. As to the kind of experiment: Preemergence weed control under flooded paddy conditions, CYPIR (Rice Flatsedge). On herbicidal effect rating, CYPIR: meaning of each grade not given here. The following applies: flooded paddy; for CYPIR: preemergence weeds, herbicidal effect rating 0-9, three to four weeks after treatment; for herbicidal effect rating, CYPIR / CYPIR herbicidal rating: preemergence.
Setting [4] is: Rate 0.0320 kg/ha, rated 3-4 weeks after treatment.
[5] abbreviates: Rate 0.0620 kg/ha, rated 3-4 weeks after treatment.
[6] abbreviates: Rate 0.1250 kg/ha, rated 3-4 weeks after treatment.
Where [7] appears, read: Rate 0.2500 kg/ha, rated 3-4 weeks after treatment.
Setting [8] is: 0.0320 kg/ha, rated three to four weeks after treatment.
[9] abbreviates: 0.0620 kg/ha, rated three to four weeks after treatment.
Setting [10] is: 0.1250 kg/ha, rated three to four weeks after treatment.
[11] abbreviates: 0.2500 kg/ha, rated three to four weeks after treatment.
[12] abbreviates: Rate 0.0320 kg/ha, rated three to four weeks after treatment.
Where [13] appears, read: Rate 0.0620 kg/ha, rated three to four weeks after treatment.
Setting [14] is: Rate 0.1250 kg/ha, rated three to four weeks after treatment.
Where [15] appears, read: Rate 0.2500 kg/ha, rated three to four weeks after treatment.

Consider `Cn1c(C(F)(F)F)cc(=O)n(-c2ccc3snc(C(=O)c4ccccc4)c3c2)c1=O` [Example 449, 2,4(1,3H)-Pyrimidinedione, 3-(3-benzoyl-1,2-benzisothiazol-5-yl)-1-methyl-6-(trifluoromethyl)-], for which the ECHORC in test [1] (0.0320 kg/ha) stood at 5.0; in test [1] (0.0620 kg/ha), 7.0; in test [1] (0.1250 kg/ha), 9.0; in test [1] (0.2500 kg/ha), 9.0. Also, the MOOVA in test [2] (0.0320 kg/ha) was 7.0; in test [2] (0.0620 kg/ha) it was 7.0; in test [2] (0.1250 kg/ha), 9.0; in test [2] (0.2500 kg/ha), 9.0. Besides, the SAGPY with Sagittaria pygmaea, L. (0.0320 kg/ha) is listed as 2.0; with Sagittaria pygmaea, L. (0.0620 kg/ha) it was 4.0; with Sagittaria pygmaea, L. (0.1250 kg/ha), 4.0; in the test with Sagittaria pygmaea, L. (0.2500 kg/ha), 6.0. The CYPSE in test [3] (0.0320 kg/ha) came to 2.0; in test [3] (0.2500 kg/ha), 4.0. Further, the CYPIR with Cyperus iria (0.0320 kg/ha) is 4.0; in the test on Cyperus iria (0.0620 kg/ha), 5.0; with Cyperus iria (0.1250 kg/ha) it was 8.0; in the test on Cyperus iria (0.2500 kg/ha) it was 9.0.

For the molecule `COc1ccc(C)cc1-c1nsc2cc(Cl)c(-n3c(=O)cc(C(F)(F)F)n(C)c3=O)cc12` [Example 442, 2,4(1H,3H)-Pyrimidinedione, 3-[6-chloro-3-(6-methoxy-m-tolyl)-1,2-benzisothiazol-5-yl]-1-methyl-6-(trifluoromethyl)-], the ECHORC in test [1] (0.0320 kg/ha) is recorded as 8.3; in test [1] (0.0620 kg/ha) it was 9.0; in test [1] (0.1250 kg/ha) it was 9.0; in test [1] (0.2500 kg/ha) it was 9.0. In addition, the MOOVA in test [2] (0.0320 kg/ha) is reported as 6.0; in test [2] (0.0620 kg/ha), 8.3; in test [2] (0.1250 kg/ha), 9.0; in test [2] (0.2500 kg/ha) it was 9.0. In addition, the SAGPY was found to be 1.3 with Sagittaria pygmaea, L. (0.0320 kg/ha); 1.7 with Sagittaria pygmaea, L. (0.0620 kg/ha); 2.0 in the test on Sagittaria pygmaea, L. (0.1250 kg/ha); 4.0 with Sagittaria pygmaea, L. (0.2500 kg/ha). The CYPSE worked out at 0.0 in test [3] (0.0320 kg/ha), 0.0 in test [3] (0.0620 kg/ha), 0.0 in test [3] (0.1250 kg/ha) and 4.5 in test [3] (0.2500 kg/ha). Further, the CYPIR is 4.3 in the test on Cyperus iria (0.0320 kg/ha), 6.3 with Cyperus iria (0.0620 kg/ha), 8.7 with Cyperus iria (0.1250 kg/ha) and 9.0 in the test with Cyperus iria (0.2500 kg/ha).

`Cc1ccc(OCC(=O)OCC2CCOC2)c(-c2nsc3ccc(-n4c(=O)cc(C(F)(F)F)n(C)c4=O)cc23)c1` (racemic) [Example 535, Acetic acid, {{2-{5-[3,6-dihydro-3-methyl-2,6-dioxo-4-(trifluoromethyl)-1(2H)-pyrimidinyl]-1,2-benzisothiazol-3-yl}-p-tolyl}oxy}-, (tetrahydro-3-furyl)methyl ester, DL-]: the “herbicidal effect rating, ECHORC” value in test [1] (setting [4]) is on record as 0.0; in test [1] (setting [5]) it was 3.0; in test [1] (setting [6]), 3.0; in test [1] (setting [7]), 4.0. Besides, the “herbicidal effect rating, MOOVA” value is 6.0 in test [2] (setting [4]), 9.0 in test [2] (setting [5]), 9.0 in test [2] (setting [6]) and 9.0 in test [2] (setting [7]). Besides, the “herbicidal effect rating, SAGPY” value with Sagittaria pygmaea, L. (setting [4]) was found to be 0.0; with Sagittaria pygmaea, L. (setting [5]) it was 0.0; in the test with Sagittaria pygmaea, L. (setting [6]), 3.0; with Sagittaria pygmaea, L. (setting [7]), 3.0. For the same molecule, the “herbicidal effect rating, CYPSE” value in test [3] (setting [4]) was 0.0; in test [3] (setting [5]), 3.0; in test [3] (setting [6]), 5.0; in test [3] (setting [7]), 5.0. Moreover, the “herbicidal effect rating, CYPIR” value with Cyperus iria (setting [4]) was found to be 0.0; in the test with Cyperus iria (setting [5]), 6.0; in the test on Cyperus iria (setting [6]) it was 9.0; in the test on Cyperus iria (setting [7]), 9.0.

With `Cn1c(C(F)(F)F)cc(=O)n(-c2ccc3snc(COC(=O)c4cccs4)c3c2)c1=O` [Example 477, 2,4(1H,3H)-Pyrimidinedione, 3-[3-(hydroxymethyl)-1,2-benzisothiazol-5-yl]-1-methyl-6-(trifluoromethyl)-, 2-thiophenecarboxylate (ester)], the ECHORC herbicidal rating was determined as 0.0 in test [1] (setting [8]), 0.0 in test [1] (setting [9]), 2.0 in test [1] (setting [10]) and 3.0 in test [1] (setting [11]). For the same molecule, the MOOVA herbicidal rating in test [2] (setting [8]) is 3.0; in test [2] (setting [9]), 3.0; in test [2] (setting [10]), 6.0; in test [2] (setting [11]), 7.0. Besides, the SAGPY herbicidal rating with Sagittaria pygmaea, L. (setting [8]) was found to be 0.0; in the test on Sagittaria pygmaea, L. (setting [9]) it was 0.0; in the test with Sagittaria pygmaea, L. (setting [10]) it was 0.0; in the test with Sagittaria pygmaea, L. (setting [11]), 2.0. For the same molecule, the CYPSE herbicidal rating in test [3] (setting [8]), in test [3] (setting [9]) and in test [3] (setting [11]) was 3.0 in each case. The CYPIR herbicidal rating in the test with Cyperus iria (setting [8]) turned out to be 4.0; with Cyperus iria (setting [9]), 4.0; with Cyperus iria (setting [10]) it was 5.0; in the test on Cyperus iria (setting [11]) it was 6.0.

For the molecule `Cn1c(C(F)(F)F)cc(=O)n(-c2ccc3snc(COC(=O)c4ccco4)c3c2)c1=O` [Example 497, 2,4(1H,3H)-Pyrimidinedione, 3-[3-(hydroxymethyl)-1,2-benzisothiazol-5-yl]-1-methyl-6-(trifluoromethyl)-, 2-furoate (ester)], the ECHORC herbicidal rating in test [1] (setting [8]) stood at 0.0; in test [1] (setting [9]), 0.0; in test [1] (setting [10]), 4.0; in test [1] (setting [11]) it was 7.0. The MOOVA herbicidal rating is reported as 6.0 in test [2] (setting [8]), 7.0 in test [2] (setting [9]), 9.0 in test [2] (setting [10]) and 9.0 in test [2] (setting [11]). In addition, the SAGPY herbicidal rating came to 0.0 with Sagittaria pygmaea, L. (setting [8]); 0.0 in the test with Sagittaria pygmaea, L. (setting [9]); 2.0 in the test with Sagittaria pygmaea, L. (setting [10]); 6.0 in the test with Sagittaria pygmaea, L. (setting [11]). Further, the CYPSE herbicidal rating is given as 6.0 in test [3] (setting [10]) and 9.0 in test [3] (setting [11]). Further, the CYPIR herbicidal rating in the test with Cyperus iria (setting [8]) is recorded as 5.0; in the test on Cyperus iria (setting [9]), 6.0; with Cyperus iria (setting [10]), 9.0; in the test on Cyperus iria (setting [11]), 9.0.

For the molecule `C#CCC(c1nsc2ccc(-n3c(=O)cc(C(F)(F)F)n(C)c3=O)cc12)S(C)(=O)=O` (stereo not shown) [Example 603, 2,4(1H,3H)-Pyrimidinedione, 1-methyl-3-{3-[1-(methylsulfonyl)-3-butynyl]-1,2-benzisothiazol-5-yl}-6-(trifluoromethyl)-], the “herbicidal effect rating, ECHORC” value in test [1] (setting [12]) amounted to 0.0; in test [1] (setting [13]) it was 4.0; in test [1] (setting [14]), 6.0; in test [1] (setting [15]), 8.0. Besides, the “herbicidal effect rating, MOOVA” value is reported as 7.0 in test [2] (setting [12]), 7.0 in test [2] (setting [13]), 9.0 in test [2] (setting [14]) and 9.0 in test [2] (setting [15]). The “herbicidal effect rating, SAGPY” value is on record as 0.0 with Sagittaria pygmaea, L. (setting [12]); 0.0 in the test on Sagittaria pygmaea, L. (setting [13]); 2.0 with Sagittaria pygmaea, L. (setting [14]); 4.0 in the test with Sagittaria pygmaea, L. (setting [15]). Also, the “herbicidal effect rating, CYPSE” value in test [3] (setting [12]) is 0.0; in test [3] (setting [14]), 8.0; in test [3] (setting [15]), 9.0. For the same molecule, the “herbicidal effect rating, CYPIR” value came out at 5.0 in the test with Cyperus iria (setting [12]), 6.0 in the test on Cyperus iria (setting [14]) and 7.0 in the test on Cyperus iria (setting [15]).

As for “2,4(1H,3H)-Pyrimidinedione, 1-methyl-3-[(2-methylbutyryl)-1,2-benzisothiazol-5-yl]-6-(trifluoromethyl)- [Example 433]”, the ECHORC in test [1] (0.0320 kg/ha) is 8.0; in test [1] (0.0620 kg/ha) it was 9.0; in test [1] (0.1250 kg/ha), 9.0; in test [1] (0.2500 kg/ha), 9.0. Also, the MOOVA in test [2] (0.0320 kg/ha) amounted to 8.5; in test [2] (0.0620 kg/ha), 9.0; in test [2] (0.1250 kg/ha), 9.0; in test [2] (0.2500 kg/ha), 9.0. Further, the SAGPY with Sagittaria pygmaea, L. (0.0320 kg/ha) came to 2.0; in the test with Sagittaria pygmaea, L. (0.0620 kg/ha), 4.5; with Sagittaria pygmaea, L. (0.1250 kg/ha), 6.0; with Sagittaria pygmaea, L. (0.2500 kg/ha), 7.0. For the same molecule, the CYPSE in test [3] (0.0320 kg/ha) is on record as 0.0; in test [3] (0.0620 kg/ha), 6.0; in test [3] (0.1250 kg/ha) it was 7.5; in test [3] (0.2500 kg/ha) it was 7.5. For the same molecule, the CYPIR with Cyperus iria (0.0320 kg/ha) is 5.5; with Cyperus iria (0.0620 kg/ha), 8.5; with Cyperus iria (0.1250 kg/ha) it was 9.0; with Cyperus iria (0.2500 kg/ha), 9.0.
